In PubChem BioAssay AID256 (DTP/NCI, 2004):
Inconclusive results and toxic doses are left out. The calls were made as follows: active = survival T/C of 150% or more; inactive = T/C below 125% in these data.

Test system: CD2F1 mice, L1210 leukemia ip, survival T/C
Assay: NCI In Vivo Anticancer Drug Screen. Data for tumor model L1210 Leukemia (intraperitoneal) in CD2F1 (CDF1) mice
Conditions: higher = longer survival
How it was run: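 Ratio T/C, where T is the treated-group value and C the vehicle-dosed control value, from mice implanted with a transplantable tumor.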

[1] = endpoint: mean survival time, dose: 50.0 mg/kg/injection, schedule: Q01DX009 (ip), vehicle: saline with Tween-80
[2] = endpoint: mean survival time, dose: 100.0 mg/kg/injection, schedule: Q01DX009 (ip), vehicle: saline with Tween-80
[3] = endpoint: mean survival time, dose: 200.0 mg/kg/injection, schedule: Q01DX009 (ip), vehicle: saline with Tween-80
[4] = endpoint: mean survival time, dose: 400.0 mg/kg/injection, schedule: Q01DX009 (ip), vehicle: saline with Tween-80
[5] = endpoint: mean survival time, dose: 100.0 mg/kg/injection, schedule: Q01DX001 (ip), vehicle: saline with Tween-80
[6] = endpoint: mean survival time, dose: 200.0 mg/kg/injection, schedule: Q01DX001 (ip), vehicle: saline with Tween-80
[7] = endpoint: mean survival time, dose: 400.0 mg/kg/injection, schedule: Q01DX001 (ip), vehicle: saline with Tween-80

Measured: T/C

N=C(Oc1ccccc1)C(Cl)(Cl)Cl
inactive: [1] 90 % of control | [2] 95 % of control | [3] 98 % of control

CCOC(=O)Nc1cccc(Cl)c1F
inactive: [2] 91 % of control | [3] 97 % of control | [4] 96 % of control

OCC1OC(n2cnc3c(SCc4ccccc4)ncnc32)C(O)C1O (centres undefined)
inactive: endpoint: mean survival time, dose: 78.0 mg/kg/injection, schedule: Q01DX001 (ip), vehicle: saline 104 % of control | endpoint: mean survival time, dose: 100.0 mg/kg/injection, schedule: Q04DX003 (ip), vehicle: saline 101 % of control | endpoint: mean survival time, dose: 117.0 mg/kg/injection, schedule: Q01DX001 (ip), vehicle: saline 109 % of control | endpoint: mean survival time, dose: 200.0 mg/kg/injection, schedule: Q04DX003 (ip), vehicle: saline 98 % of control | endpoint: mean survival time, dose: 400.0 mg/kg/injection, schedule: Q04DX003 (ip), vehicle: saline 104 % of control
active: endpoint: mean survival time, dose: 132.0 mg/kg/injection, schedule: Q01DX009 (ip), vehicle: saline 176 % of control | endpoint: mean survival time, dose: 200.0 mg/kg/injection, schedule: Q01DX009 (ip), vehicle: saline 187 % of control | endpoint: mean survival time, dose: 400.0 mg/kg/injection, schedule: Q01DX001 (ip), vehicle: other 152 % of control

O=C1C=CC2OC(c3ccccc3)C(O)C2O1 (centres undefined)
inactive: endpoint: median survival time, dose: 3.12 mg/kg/injection, schedule: Q01DX005 (ip), vehicle: DMSO 111 % of control | endpoint: median survival time, dose: 6.25 mg/kg/injection, schedule: Q01DX005 (ip), vehicle: DMSO 101 % of control | endpoint: median survival time, dose: 12.5 mg/kg/injection, schedule: Q01DX005 (ip), vehicle: DMSO 112 % of control | endpoint: median survival time, dose: 25.0 mg/kg/injection, schedule: Q01DX005 (ip), vehicle: DMSO 115 % of control | endpoint: median survival time, dose: 50.0 mg/kg/injection, schedule: Q01DX005 (ip), vehicle: DMSO 87 % of control

O=C1OC(c2c[nH]c3ccccc23)c2ccccc21 (centres undefined)
inactive: [5] 94 % of control | [6] 94 % of control | [7] 87 % of control

O=C(Nc1ccc(C2=NCCN2)cc1)Nc1cccc(NC(=O)Nc2ccc(C3=NCCN3)cc2)c1
inactive: endpoint: mean survival time, dose: 1.8 mg/kg/injection, schedule: Q01DX008 (iv), vehicle: other 103 % of control | endpoint: mean survival time, dose: 3.75 mg/kg/injection, schedule: Q01DX008 (iv), vehicle: other 103 % of control

CCCCCCCCCCCC(=O)OCCN(C=O)C[n+]1ccccc1
inactive: endpoint: mean survival time, dose: 100.0 mg/kg/injection, schedule: Q04DX002 (ip), vehicle: saline 101 % of control

CCOC(=O)N/N=C/c1ccccc1
inactive: [5] 103 % of control | [6] 108 % of control | [7] 110 % of control

C=CC(C)(C)c1ccccc1
inactive: [1] 93 % of control | [2] 96 % of control | [3] 98 % of control

CC(=O)Nc1cc(/C=C/c2ccccc2)ccc1S(=O)(=O)c1ccc(/C=C/c2ccccc2)cc1NC(C)=O
inactive: [2] 93 % of control | [3] 96 % of control | [4] 88 % of control

O=c1[nH]cc(N=Cc2ccccc2F)c(=O)[nH]1.[Cl][Pt][Cl]
inactive: endpoint: mean survival time, dose: 3.13 mg/kg/injection, schedule: Q04DX003 (ip), vehicle: water 97 % of control | endpoint: mean survival time, dose: 6.25 mg/kg/injection, schedule: Q04DX003 (ip), vehicle: water 96 % of control | endpoint: mean survival time, dose: 12.5 mg/kg/injection, schedule: Q04DX003 (ip), vehicle: water 97 % of control | endpoint: mean survival time, dose: 25.0 mg/kg/injection, schedule: Q04DX003 (ip), vehicle: water 100 % of control | endpoint: mean survival time, dose: 50.0 mg/kg/injection, schedule: Q04DX003 (ip), vehicle: water 97 % of control | endpoint: mean survival time, dose: 100.0 mg/kg/injection, schedule: Q04DX003 (ip), vehicle: water 91 % of control | endpoint: mean survival time, dose: 200.0 mg/kg/injection, schedule: Q04DX003 (ip), vehicle: water 100 % of control

CCCC/C=C\C1CCCCC1C (centres undefined)
inactive: [1] 87 % of control | [2] 96 % of control | [3] 104 % of control

CCOC(=O)CN1C(=O)NC(c2ccccc2)(c2ccccc2)C1=O
inactive: [2] 94 % of control | endpoint: mean survival time, dose: 100.0 mg/kg/injection, schedule: Q04DX003 (ip), vehicle: acetone 97 % of control | endpoint: mean survival time, dose: 200.0 mg/kg/injection, schedule: Q04DX003 (ip), vehicle: acetone 101 % of control | [4] 94 % of control | endpoint: mean survival time, dose: 400.0 mg/kg/injection, schedule: Q04DX003 (ip), vehicle: acetone 103 % of control
